Measured values from PubChem BioAssay (NCI).
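48-hour exposure; five concentrations; linearly interpolated endpoints. TGI denotes the concentration required for complete inhibition of growth.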 Where a SMILES comes first, the peptide text is derived from it. [ ]: non-standard residue; d: D form. The star is where a group is joined. ξ: configuration not given here. ξF = NC(Cc1ccccc1)C(=O)O; Cbz = O=C(OCc1ccccc1)*; Aib = CC(C)(N)C(=O)O; NHNH2 = NN*

How the values were obtained:
Experiment in all cases: DTP human tumour cell line panel, 48 h
HCT-116 colon = test system: HCT-116 colon
KM12 colon = test system: KM12 colon
HS 578T breast = test system: HS 578T breast
SN12C renal = test system: SN12C renal
SK-MEL-2 melanoma = test system: SK-MEL-2 melanoma
OVCAR-8 ovarian = test system: OVCAR-8 ovarian
U251 CNS = test system: U251 CNS
M14 melanoma = test system: M14 melanoma
SW-620 colon = test system: SW-620 colon
A498 renal = test system: A498 renal
HCT-15 colon = test system: HCT-15 colon
SNB-75 CNS = test system: SNB-75 CNS
SR leukemia = test system: SR leukemia
MCF7 breast = test system: MCF7 breast
MOLT-4 leukemia = test system: MOLT-4 leukemia
HOP-62 NSCLC = test system: HOP-62 NSCLC
MDA-MB-435 = test system: MDA-MB-435
HOP-92 NSCLC = test system: HOP-92 NSCLC
IGROV1 ovarian = test system: IGROV1 ovarian
TK-10 renal = test system: TK-10 renal
UO-31 renal = test system: UO-31 renal
A549 NSCLC = test system: A549 NSCLC
CCRF-CEM leukemia = test system: CCRF-CEM leukemia
CAKI-1 renal = test system: CAKI-1 renal
SF-295 CNS = test system: SF-295 CNS
HL-60(TB) leukemia = test system: HL-60(TB) leukemia
SF-539 CNS = test system: SF-539 CNS
NCI-H23 lung = test system: NCI-H23 lung
HT29 colon = test system: HT29 colon
EKVX NSCLC = test system: EKVX NSCLC
COLO 205 colon = test system: COLO 205 colon
PC-3 prostate = test system: PC-3 prostate
OVCAR-3 ovarian = test system: OVCAR-3 ovarian
SNB-19 CNS = test system: SNB-19 CNS
SK-MEL-28 melanoma = test system: SK-MEL-28 melanoma
OVCAR-4 ovarian = test system: OVCAR-4 ovarian
DU-145 prostate = test system: DU-145 prostate
ACHN renal = test system: ACHN renal
UACC-257 melanoma = test system: UACC-257 melanoma
T-47D breast = test system: T-47D breast
SF-268 CNS = test system: SF-268 CNS
K-562 leukemia = test system: K-562 leukemia
HCC-2998 colon = test system: HCC-2998 colon
MDA-N = test system: MDA-N
NCI/ADR-RES ovarian = test system: NCI/ADR-RES ovarian
SK-MEL-5 melanoma = test system: SK-MEL-5 melanoma
UACC-62 melanoma = test system: UACC-62 melanoma
NCI-H460 lung = test system: NCI-H460 lung
NCI-H226 lung = test system: NCI-H226 lung
MALME-3M melanoma = test system: MALME-3M melanoma
RXF 393 renal = test system: RXF 393 renal
BT-549 breast = test system: BT-549 breast
NCI-H522 lung = test system: NCI-H522 lung
OVCAR-5 ovarian = test system: OVCAR-5 ovarian
786-0 renal = test system: 786-0 renal
SK-OV-3 ovarian = test system: SK-OV-3 ovarian
MDA-MB-231 breast = test system: MDA-MB-231 breast
LOX IMVI melanoma = test system: LOX IMVI melanoma
RPMI-8226 leukemia = test system: RPMI-8226 leukemia

Measured: TGI

Cc1ccccc1N=Nc1c(O)c(S(=O)(=O)O)cc2cc(S(=O)(=O)O)ccc12
> 100 µM: HCT-116 colon | KM12 colon | HS 578T breast | SN12C renal | SK-MEL-2 melanoma | OVCAR-8 ovarian | U251 CNS | M14 melanoma | SW-620 colon | A498 renal | HCT-15 colon | SNB-75 CNS | SR leukemia | MCF7 breast | MOLT-4 leukemia | HOP-62 NSCLC | MDA-MB-435 | HOP-92 NSCLC | IGROV1 ovarian | TK-10 renal | UO-31 renal | A549 NSCLC | CCRF-CEM leukemia | CAKI-1 renal | SF-295 CNS | HL-60(TB) leukemia | SF-539 CNS | NCI-H23 lung | HT29 colon | EKVX NSCLC | COLO 205 colon | PC-3 prostate | OVCAR-3 ovarian | SNB-19 CNS | SK-MEL-28 melanoma | OVCAR-4 ovarian | DU-145 prostate | ACHN renal | UACC-257 melanoma | T-47D breast | SF-268 CNS | K-562 leukemia | HCC-2998 colon | MDA-N | NCI/ADR-RES ovarian | SK-MEL-5 melanoma | UACC-62 melanoma | NCI-H460 lung | NCI-H226 lung | MALME-3M melanoma | RXF 393 renal | BT-549 breast | NCI-H522 lung | OVCAR-5 ovarian | 786-0 renal | SK-OV-3 ovarian | MDA-MB-231 breast

O=c1ccn(CC2(CO)CCC2)c(=O)[nH]1
> 100 µM: HCT-116 colon | KM12 colon | HS 578T breast | SN12C renal | SK-MEL-2 melanoma | OVCAR-8 ovarian | U251 CNS | SW-620 colon | A498 renal | HCT-15 colon | SNB-75 CNS | SR leukemia | MCF7 breast | MOLT-4 leukemia | HOP-62 NSCLC | MDA-MB-435 | HOP-92 NSCLC | IGROV1 ovarian | TK-10 renal | UO-31 renal | A549 NSCLC | CCRF-CEM leukemia | CAKI-1 renal | SF-295 CNS | HL-60(TB) leukemia | SF-539 CNS | NCI-H23 lung | HT29 colon | EKVX NSCLC | COLO 205 colon | PC-3 prostate | OVCAR-3 ovarian | SK-MEL-28 melanoma | OVCAR-4 ovarian | DU-145 prostate | ACHN renal | UACC-257 melanoma | T-47D breast | SF-268 CNS | K-562 leukemia | HCC-2998 colon | MDA-N | NCI/ADR-RES ovarian | SK-MEL-5 melanoma | UACC-62 melanoma | NCI-H460 lung | LOX IMVI melanoma | NCI-H226 lung | MALME-3M melanoma | RPMI-8226 leukemia | RXF 393 renal | BT-549 breast | NCI-H522 lung | OVCAR-5 ovarian | 786-0 renal | SK-OV-3 ovarian | MDA-MB-231 breast

CC(C)(NC(=O)OCc1ccccc1)C(=O)NC(Cc1ccccc1)C(=O)NN (centres undefined) (Cbz-[Aib]-[ξF]-NHNH2)
> 100 µM: KM12 colon | HS 578T breast | SN12C renal | SK-MEL-2 melanoma | OVCAR-8 ovarian | U251 CNS | M14 melanoma | SW-620 colon | A498 renal | HCT-15 colon | SNB-75 CNS | MCF7 breast | MOLT-4 leukemia | HOP-62 NSCLC | MDA-MB-435 | HOP-92 NSCLC | IGROV1 ovarian | TK-10 renal | UO-31 renal | A549 NSCLC | CCRF-CEM leukemia | CAKI-1 renal | SF-295 CNS | SF-539 CNS | NCI-H23 lung | HT29 colon | EKVX NSCLC | COLO 205 colon | PC-3 prostate | OVCAR-3 ovarian | SNB-19 CNS | SK-MEL-28 melanoma | OVCAR-4 ovarian | DU-145 prostate | ACHN renal | UACC-257 melanoma | T-47D breast | SF-268 CNS | K-562 leukemia | MDA-N | NCI/ADR-RES ovarian | SK-MEL-5 melanoma | UACC-62 melanoma | NCI-H460 lung | LOX IMVI melanoma | NCI-H226 lung | MALME-3M melanoma | RPMI-8226 leukemia | RXF 393 renal | BT-549 breast | NCI-H522 lung | OVCAR-5 ovarian | 786-0 renal | SK-OV-3 ovarian | MDA-MB-231 breast
